Several values for one entry are separate records, joined by “and”; a condition that tells them apart may be missing. Equal values may be shown once. Non-standard residues stand in square brackets, D forms with d. Residues, ends and D or L forms follow the SMILES beside them. aThr = C[C@H](O)[C@H](N)C(=O)O; dPra = C#CC[C@@H](N)C(=O)O; dDap = NC[C@@H](N)C(=O)O
Key:
proteasome [1] = details: background statement; cited from earlier work
20S CP [2] = biological target: T1, 20S CP; experiment: TAS-1 biochemical assay (20S CP stimulation); parameters: key to Emax: % of DMSO control rate (percent stimulation); key to TAS-1: % of DMSO control rate of TAS-1 hydrolysis; details: for EC50: dose-response curve; for EC50 / Emax: 20S CP stimulation; for Emax: maximal response of dose-response curve, in %; for TAS-1: percent stimulation of 20S CP, rate of TAS-1 hydrolysis normalized against DMSO, compounds tested at 10 μM, 5 nM 20S CP
T1 construct: purchased South Bay
Method: Each compound was initially tested at 10 μM. Each well contained […] of 11.4 μM TAS-1 solution in Tris HCl (50 mM, pH 7.4) along with 5 nM of 20 sCP (South Bay). 1 μL of the test compound, control, or DMSO was added to the desired well to obtain a final DMSO concentration of 2%, with the total volume being 50 μL. Compounds were tested in three replicates that each had technical triplicates. The fluorescence was recorded using a SynergyNeo 2, where the excitation and emission was set to 335 nm and 493 nm. The plate reader was heated to 37° C. The fluorescence was recorded every 90 seconds over a 1-hour period. A simple linear regression was performed on the data plotted against time to obtain the rate of hydrolysis of TAS-1 by the 20S CP. The data was then normalized against DMSO to get the percent stimulation.

[3] = test system: T2, cytosolic proteasome in HEK293 T cells; experiment: Flow cytometry assay of proteasome stimulation in cellulo (epoxomicin probe); format: cell-based; details: for In-Cellulo: 10 μM stimulator, 2.5 μM epoxomicin probe, 1 hour, flow cytometry (FITC); for cellular stimulation of the proteasome (in words): 10 μM, flow cytometry
T2 construct: endogenous in cells; host or cells: HEK 293T
Source text: Flow cytometry allows for the study of proteasomal activity in physiologically relevant conditions and presents a high-throughput alternative to traditional gel electrophoresis and western blotting techniques. To test the assay, the covalent fluorescent-based probe was applied in HEK293 T cells to quantify proteasome stimulation of CyPPSs alone and in the presence of the known proteasome stimulator miconazole and the known proteasome inhibitor MG132. The covalent fluorescent-based probe utilized an epoxy-ketone warhead that interacts with the β5 subunit of the proteasome, forming a covalent attachment and fluorescently tagging the proteasome. The addition of the CyPPSs induces a significant shift in the intracellular fluorescence (FIG. 6). This shift validated that CyPPSs can stimulate cytosolic proteasome in cellulo. […] However, their activity was lower than what would be expected based on their in vitro activity. This may be due to incomplete cellular uptake or escape from the endosomes. […] This is likely due to a combination of effects, including the inability to stimulate the proteasome (FIGS. 2A and 2B) as well as the generally poor cell permeability and stability of linear peptides.
Confluent HEK 293T cells were seeded into sterilized 2 mL Fisherbrand Eppendorf tubes in FBS free Dulbecco's Modified Eagle Medium (DMEM) at a concentration of 300,000 cells per tube. The cells were centrifuged at 1000 g for 5 minutes. The supernatant was removed, and the cells were resuspended in 500 μL of a 10 μM stimulator solution in FBS free DMEM. Cells were spun down at 1000 g for 5 minutes, and the supernatant was again removed. Cells were then resuspended in 500 μL of a 10 μM stimulator 2.5 μM epoxomicin probe in FBS-free DMEM and incubated for 1 hour at 37° C. Cells were again centrifuged at 1000 g for 5 minutes. Supernatant was then removed, and cells were washed once with cold PBS. Cells were then resuspended in 50 μL of cold PBS and placed on ice. Cellular fluorescence was measured by collecting 50,000 events using the FITC channel of a BD Accuri C6 Flow Cytometer and analyzed using FlowJo.

human red blood cells = experiment: Hemolysis assay; format: cell-based; details: percent hemolysis, 1 hour at 37° C., table title 15 uM, method 20 μM, in %
Method: Whole human blood was purchased at BiolVT and used prior to its expiration. 100 μL blood was added to a 1.5 mL Eppendorf tub with 500 μL of sterile 0.9% NaCl. The tube was inverted multiple times to mix the solution. This mixture was centrifuged at 500 g for 7 minutes. The supernatant was extracted utilizing a pipette. The pellet was washed 2 more times. After the final wash, 800 μL of Red Blood Cell (RBC) buffer was added to the pellet to resuspend the red blood cells. 4 μL of the compounds (20 μM in DMSO, final concentration), 76 μL RBC buffer, and 40 μL resuspended red blood cells were added to a 96 U-well plate (VWR) and incubated for 1 hour at 37° C. The plate was spun at 500 g for 5 minutes. […] of the supernatant was transferred to a 96 flat-well plate. The absorbance was read at 540 nm utilizing a SpectraMax iD3 platereader. Percent hemolysis was measured from the average absorbance of the positive and negative controls. A minimum of 3 biological triplicates were performed.

20S CP [4] = test system: T1, 20S CP; experiment: Purified protein degradation assay; format: biochemical; details: 10 uM CyPPS, 5 nM 20S CP, 200 ng purified protein, 1 hour at 37° C.; for proteasomal degradation of α-synuclein: highly disordered protein; for proteasomal degradation of GAPDH / proteasomal degradation of lysozyme: low disordered protein
Method: Proteins were diluted to 50 ng/μL in Tris HCl (50 mM, pH 7.6). The CyPPS were diluted to 30 μM in Tris HCl, with 6% DMSO. The 20S CP (South Bay) was diluted to 15 nM with Tris HCl. Each protein was performed with a latent level, basal level, and CyPPS in triplicate. The latent level was prepared with 4 μL protein and 8 μL of 3% DMSO in Tris HCl. The basal level contained 4 μL protein, 4 μL 20S CP, and 4 μL 6% DMSO in Tris HCl. The CyPPS was performed with 4 μL protein, 4 μL 20S CP, and 4 μL 30 μM CyPPS. The samples were incubated for 1 hour at 37° C. 4 μL of 4×SDS gel loading buffer was added and heated for 5 minutes at 95° C. The samples were run on a 15-well gradient gel for SDS-PAGE, stained with Coomassie, imaged with an imaging system, and quantified with ImageJ. Analysis was done via GraphPad PRISM9.

proteasome [5] = details: background statement; cited from earlier work; remark: listed apart in the source

## CCCCC/C=C\C/C=C\C/C=C\C/C=C\CCCC(=O)Nc1ccc(O)cc1 [AM-404]
Proteasome [1]
  potency as proteasome stimulator (in words): lack of potency

## CC(C)C[C@H]1NC(=O)[C@H]([C@H](C)O)NC(=O)[C@@H](C)NC(=O)[C@H](CCCNC(=N)N)NC(=O)[C@@H](Cc2ccccc2)NC(=O)[C@H](Cc2ccccc2)NC1=O [CyPPS1, TLFFRA [SEQ ID NO: 1]] (cyclo(F[dF]R[dA][aThr][dL]))
20S CP [2]
  EC50: 6.4 µM
  Emax: 282.9
  TAS-1: 339.5 ± 15.7
20S CP [2]; library of 45 cyclic peptides, TAS-1 assay
  percent stimulation of the proteasome in the SNaPP library screen: highest percent stimulation
[3]
  In-Cellulo: 235.1 ± 5.5
  cellular stimulation of the proteasome (in words): significant cellular stimulation of the proteasome
Human red blood cells
  Hemolysis: 13 ± 1
20S CP [4]
  proteasomal degradation of α-synuclein: greatly enhanced
  proteasomal degradation of GAPDH: little-to-no effect
  proteasomal degradation of lysozyme: little-to-no effect

## CC(C)C[C@H]1NC(=O)[C@H](CC(=O)O)NC(=O)[C@@H](C)NC(=O)[C@H](CCCNC(=N)N)NC(=O)[C@@H](Cc2ccccc2)NC(=O)[C@H](Cc2ccccc2)NC1=O [CyPPS8, DLFFRA [SEQ ID NO: 8]] (cyclo(D[dL]F[dF]R[dA]))
20S CP [2]; TAS-1 assay
  20S CP stimulatory activity (in words, SAR compared to CyPPS1): maintained stimulatory activity
20S CP [2]
  EC50: 14.2 µM
  Emax: 701.4
  TAS-1: 372.2 ± 12.1
[3]
  In-Cellulo: 161.0 ± 31.7
Human red blood cells
  Hemolysis: 0 ± 0

## CC(C)[C@H]1NC(=O)[C@H]([C@@H](C)O)NC(=O)[C@@H](C)NC(=O)[C@H](CCCNC(=N)N)NC(=O)[C@@H](Cc2ccccc2)NC(=O)[C@H](Cc2ccccc2)NC1=O [CyPPS13, TVFFRA [SEQ ID NO: 13]] (cyclo(T[dV]F[dF]R[dA]))
20S CP [2]; TAS-1 assay
  20S CP stimulatory activity (in words, SAR compared to CyPPS1): retained activity
20S CP [2]
  EC50: 4.1 µM and 4 µM
  Emax: 393 and 393.8
  TAS-1: 422.4 ± 18.5
[3]
  In-Cellulo: 173.7 ± 13.0
Human red blood cells
  Hemolysis: 5 ± 2

## C#CC[C@H]1NC(=O)[C@H]([C@@H](C)O)NC(=O)[C@@H](C)NC(=O)[C@H](CCCNC(=N)N)NC(=O)[C@@H](Cc2ccccc2)NC(=O)[C@H](Cc2ccccc2)NC1=O [CyPPS14, TXFFRA [SEQ ID NO: 14]] (cyclo(T[dPra]F[dF]R[dA]))
20S CP [2]; TAS-1 assay
  20S CP stimulatory activity (in words, SAR compared to CyPPS1): retained stimulatory activity
20S CP [2]
  EC50: 12.1 µM
  Emax: 513.6
  TAS-1: 387.9 ± 2.7
[3]
  In-Cellulo: 231.4 ± 31.7
  cellular stimulation of the proteasome (in words): significant cellular stimulation of the proteasome
Human red blood cells
  Hemolysis: 2 ± 1
20S CP [4]
  proteasomal degradation of α-synuclein: greatly enhanced
  proteasomal degradation of GAPDH: little-to-no effect
  proteasomal degradation of lysozyme: little-to-no effect

## CC(C)C[C@H]1NC(=O)[C@H]([C@@H](C)O)NC(=O)[C@@H](CN)NC(=O)[C@H](CCCNC(=N)N)NC(=O)[C@@H](Cc2ccccc2)NC(=O)[C@H](Cc2ccccc2)NC1=O [CyPPS23, TLFFRX [SEQ ID NO: 23]] (cyclo(T[dL]F[dF]R[dDap]))
20S CP [2]; TAS-1 assay
  20S CP stimulatory activity (in words, SAR compared to CyPPS1): maintained stimulatory activity
20S CP [2]
  EC50: 4 µM and 4.1 µM
  Emax: 391 and 390.9
  TAS-1: 352.4 ± 39.1
[3]
  In-Cellulo: 247.3 ± 15.4
  cellular stimulation of the proteasome (in words): significant cellular stimulation of the proteasome
Human red blood cells
  Hemolysis: 20 ± 4
20S CP [4]
  proteasomal degradation of α-synuclein: greatly enhanced
  proteasomal degradation of GAPDH: little-to-no effect
  proteasomal degradation of lysozyme: little-to-no effect

## CC(C)c1ccc2c(c1)c(SC(C)(C)C)c(CC(C)(C)C(=O)O)n2Cc1ccc(Cl)cc1 [MK-866]
Proteasome [5]
  activity in cell-based assays (in words): inactivity in cell-based assays

## CN(C)CCCN1c2ccccc2Sc2ccc(Cl)cc21 [chloropromazine]
Proteasome [5]
  activity in cell-based assays (in words): inactivity in cell-based assays

## Clc1ccc(COC(Cn2ccnc2)c2ccc(Cl)cc2Cl)c(Cl)c1 (centres unmarked) [miconazole]
Proteasome [1]
  potency as proteasome stimulator (in words): lack of potency

## C[C@H]1[C@H](C)CC[C@]2(C(=O)O)CC[C@]3(C)C(=CC[C@@H]4[C@@]5(C)CC[C@H](O)C(C)(C)[C@@H]5CC[C@]43C)[C@H]12 [ursolic acid]
Proteasome [1]
  potency as proteasome stimulator (in words): lack of potency
